Test results: patent US20250319045A1, “TRANSETHOSOME-ENCAPSULATED AGENTS AND METHODS OF USE THEREOF” (Northwestern University, priority 2024, published 2025)

Legend:
[1] = Encapsulation efficiency and drug loading by HPLC after ultrafiltration; assay type: physicochemical; conditions: Z-Endoxifen in transethosomes
Procedure: After cooling the transethosomes to room temperature, the remaining volume was 10 ml. The total drug concentration was determined by HPLC using 20 μL demulsified samples. 200 μL samples were collected into a 30 kDa ultrafiltration tube, added 1 mL of 25% ethanol, ultrafiltrated at 5000 rpm, and the drug concentration of subnatant was determined by HPLC.
Encapsulation efficiency was evaluated by HPLC. HPLC was performed using a WondaSil® C-18-WR column (4.6×150 mm, 5 μm pore size). The mobile phase included an A phase and a B phase at a ratio (A:B) of 30:70. The A phase contained 10 mM ammonium formate in water: 10 mM ammonium formate in methanol. The B phase contained 10 mM ammonium formate in methanol at a ratio of 40:60. Samples were prepared as follows. The solvent was prepared by mixing 10 mM ammonium formate in a solution containing water and acetonitrile at a ratio of 1:1 (v/v). Z-Endoxifen was diluted in the solvent at a concentration gradient of 5, 10, 25, 50, and 80 μg/mL. Samples were injected into the column at a volume of 20 μL and were passed through the column at a flow rate of 0.8 mL/min at a temperate of 30° C. The detection wavelength was 243 nm.
The following equations were used in Table 1: […]

[2] = Local tolerance and dermal toxicity test, Draize scoring; conditions: after the 7th DNCB dose (third week), 0.05% in 95% ethanol

SMILES | Drug loading (%) [1] [%] | Encapsulation efficiency (%) [1] [%] | Erythema score (Draize) ([2]; 3 of 10 animals) | Erythema score (Draize) ([2]; remaining 7 animals)
CC/C(=C(\c1ccc(O)cc1)c1ccc(OCCNC)cc1)c1ccccc1 [Z-Endoxifen, (Z)-endoxifen] | 4.77 | 92.34 | – | –
O=[N+]([O-])c1ccc(Cl)c([N+](=O)[O-])c1 [DNCB, 1-chloro-2,4-dinitrobenzene] | – | – | 2 | 1
